Among the data in ChEMBL document CHEMBL1156925, “Synthesis, structure-activity relationship and crystallographic studies of 3-substituted indolin-2-one RET inhibitors” (Bioorg Med Chem, 2010) are IC50 values, retold here.

Experiment [1] addresses T1, Receptor-type tyrosine-protein kinase FLT3 (Homo sapiens, UniProt P36888).
T1 sequence (P36888 whole entry): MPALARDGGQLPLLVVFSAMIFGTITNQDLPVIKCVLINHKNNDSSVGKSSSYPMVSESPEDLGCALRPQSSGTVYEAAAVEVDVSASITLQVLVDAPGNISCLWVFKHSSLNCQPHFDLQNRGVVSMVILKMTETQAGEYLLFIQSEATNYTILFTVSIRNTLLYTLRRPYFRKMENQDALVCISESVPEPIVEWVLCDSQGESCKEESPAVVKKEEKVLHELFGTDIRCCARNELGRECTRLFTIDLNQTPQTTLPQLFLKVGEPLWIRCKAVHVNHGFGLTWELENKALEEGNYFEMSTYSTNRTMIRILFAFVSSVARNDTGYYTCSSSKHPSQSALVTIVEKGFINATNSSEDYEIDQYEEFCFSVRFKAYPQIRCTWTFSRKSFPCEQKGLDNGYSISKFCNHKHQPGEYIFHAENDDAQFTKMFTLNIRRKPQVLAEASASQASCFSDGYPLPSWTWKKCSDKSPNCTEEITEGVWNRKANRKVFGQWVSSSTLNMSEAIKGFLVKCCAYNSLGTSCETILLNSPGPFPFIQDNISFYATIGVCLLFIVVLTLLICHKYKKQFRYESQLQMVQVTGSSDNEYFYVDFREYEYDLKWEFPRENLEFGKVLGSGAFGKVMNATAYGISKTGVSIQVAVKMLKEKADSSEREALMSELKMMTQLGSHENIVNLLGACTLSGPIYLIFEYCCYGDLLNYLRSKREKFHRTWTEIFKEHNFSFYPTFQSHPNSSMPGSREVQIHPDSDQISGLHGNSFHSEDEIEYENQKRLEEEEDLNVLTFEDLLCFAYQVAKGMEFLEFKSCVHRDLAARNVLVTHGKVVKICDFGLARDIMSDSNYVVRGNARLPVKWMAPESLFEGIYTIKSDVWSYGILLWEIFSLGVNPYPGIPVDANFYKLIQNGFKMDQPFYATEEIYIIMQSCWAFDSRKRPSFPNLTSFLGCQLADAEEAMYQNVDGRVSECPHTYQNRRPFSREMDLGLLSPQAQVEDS
Kind of experiment: Inhibition of FLT3 by ELISA-based kinase assay. On the technique in general: An ELISA detects its analyte on a solid surface through an enzyme-linked reagent.

A short description of experiment [2]: cells. Conditions: Mus musculus, BaPTC2.
Experiment [3] deals with Tyrosine-protein kinase ABL1 (Homo sapiens, UniProt P00519).
Experiment [4] addresses ALK tyrosine kinase receptor (Homo sapiens, UniProt Q9UM73). Put plainly: Inhibition of ALK by ELISA-based kinase assay.
Experiment [5] in a line: cells. The following applies: Mus musculus, BaF3.

Some results are limits rather than exact numbers.

ALK tyrosine kinase receptor, sequence (Q9UM73 whole entry): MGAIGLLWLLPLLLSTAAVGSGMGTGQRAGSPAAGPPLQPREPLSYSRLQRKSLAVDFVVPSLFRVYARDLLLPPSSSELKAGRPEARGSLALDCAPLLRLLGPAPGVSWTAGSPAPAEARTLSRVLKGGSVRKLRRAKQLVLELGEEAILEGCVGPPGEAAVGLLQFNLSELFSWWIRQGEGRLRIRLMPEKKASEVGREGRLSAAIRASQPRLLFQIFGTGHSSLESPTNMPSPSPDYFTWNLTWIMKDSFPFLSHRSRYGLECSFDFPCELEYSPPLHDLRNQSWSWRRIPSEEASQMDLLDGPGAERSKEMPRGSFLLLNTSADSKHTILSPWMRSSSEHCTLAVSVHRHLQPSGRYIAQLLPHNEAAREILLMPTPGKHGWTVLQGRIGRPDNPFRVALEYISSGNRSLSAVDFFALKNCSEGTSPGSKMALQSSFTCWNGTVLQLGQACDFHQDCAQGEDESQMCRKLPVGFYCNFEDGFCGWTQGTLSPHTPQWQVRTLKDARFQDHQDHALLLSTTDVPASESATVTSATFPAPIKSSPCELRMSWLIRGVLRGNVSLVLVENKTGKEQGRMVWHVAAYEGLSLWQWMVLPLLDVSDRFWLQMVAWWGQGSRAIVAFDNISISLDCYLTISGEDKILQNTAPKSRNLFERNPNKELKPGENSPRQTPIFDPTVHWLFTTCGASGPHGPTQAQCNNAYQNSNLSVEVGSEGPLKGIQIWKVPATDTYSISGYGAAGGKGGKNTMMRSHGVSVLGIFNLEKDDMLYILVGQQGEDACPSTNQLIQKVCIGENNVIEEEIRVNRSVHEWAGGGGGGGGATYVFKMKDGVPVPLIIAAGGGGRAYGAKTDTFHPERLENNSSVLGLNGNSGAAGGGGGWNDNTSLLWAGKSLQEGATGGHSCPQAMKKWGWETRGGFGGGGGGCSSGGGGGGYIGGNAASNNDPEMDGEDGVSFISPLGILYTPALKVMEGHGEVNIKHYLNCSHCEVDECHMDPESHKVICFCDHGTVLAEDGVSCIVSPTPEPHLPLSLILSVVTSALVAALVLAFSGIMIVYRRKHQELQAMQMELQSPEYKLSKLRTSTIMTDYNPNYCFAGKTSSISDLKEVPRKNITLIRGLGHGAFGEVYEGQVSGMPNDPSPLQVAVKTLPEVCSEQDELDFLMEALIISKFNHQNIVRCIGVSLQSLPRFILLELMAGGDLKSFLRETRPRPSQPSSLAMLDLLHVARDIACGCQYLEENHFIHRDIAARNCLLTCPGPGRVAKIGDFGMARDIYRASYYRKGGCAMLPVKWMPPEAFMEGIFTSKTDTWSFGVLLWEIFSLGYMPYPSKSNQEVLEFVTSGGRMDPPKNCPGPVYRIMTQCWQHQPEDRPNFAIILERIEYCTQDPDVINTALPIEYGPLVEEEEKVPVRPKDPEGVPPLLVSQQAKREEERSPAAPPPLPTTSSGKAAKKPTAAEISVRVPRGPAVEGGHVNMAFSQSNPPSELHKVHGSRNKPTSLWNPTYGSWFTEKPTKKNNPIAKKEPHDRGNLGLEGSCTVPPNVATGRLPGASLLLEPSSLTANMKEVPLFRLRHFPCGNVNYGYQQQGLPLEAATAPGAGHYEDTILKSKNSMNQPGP
Tyrosine-protein kinase ABL1, sequence (P00519 whole entry): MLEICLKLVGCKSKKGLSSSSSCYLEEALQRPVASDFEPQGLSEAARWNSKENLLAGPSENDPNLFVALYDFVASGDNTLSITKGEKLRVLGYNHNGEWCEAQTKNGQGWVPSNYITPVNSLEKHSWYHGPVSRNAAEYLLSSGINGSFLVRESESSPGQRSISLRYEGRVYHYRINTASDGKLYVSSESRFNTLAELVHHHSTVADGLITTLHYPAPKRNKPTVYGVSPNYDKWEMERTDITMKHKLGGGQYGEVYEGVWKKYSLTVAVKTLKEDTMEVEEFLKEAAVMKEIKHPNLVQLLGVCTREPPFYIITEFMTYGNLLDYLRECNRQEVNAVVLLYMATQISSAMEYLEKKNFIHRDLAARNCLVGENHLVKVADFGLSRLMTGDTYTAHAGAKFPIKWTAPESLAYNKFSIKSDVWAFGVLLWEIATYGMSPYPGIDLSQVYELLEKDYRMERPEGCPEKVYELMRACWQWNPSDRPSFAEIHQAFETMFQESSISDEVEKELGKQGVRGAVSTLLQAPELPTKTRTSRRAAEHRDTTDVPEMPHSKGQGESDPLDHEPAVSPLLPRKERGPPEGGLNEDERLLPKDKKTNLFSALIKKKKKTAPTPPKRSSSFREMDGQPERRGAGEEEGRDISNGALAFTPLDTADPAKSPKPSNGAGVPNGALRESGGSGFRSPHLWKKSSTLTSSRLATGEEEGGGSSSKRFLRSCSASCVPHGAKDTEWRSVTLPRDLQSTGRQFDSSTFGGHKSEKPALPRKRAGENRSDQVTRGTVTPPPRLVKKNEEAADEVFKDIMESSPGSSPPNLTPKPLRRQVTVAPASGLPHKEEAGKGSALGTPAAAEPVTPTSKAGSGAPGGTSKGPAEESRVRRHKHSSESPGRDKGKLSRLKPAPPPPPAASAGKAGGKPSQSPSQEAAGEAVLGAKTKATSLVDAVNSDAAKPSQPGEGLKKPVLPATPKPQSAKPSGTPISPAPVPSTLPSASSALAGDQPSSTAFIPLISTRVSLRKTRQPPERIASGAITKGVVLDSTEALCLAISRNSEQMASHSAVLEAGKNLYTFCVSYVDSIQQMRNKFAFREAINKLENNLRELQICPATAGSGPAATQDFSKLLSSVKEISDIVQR

For orientation: IC50 means the midpoint of a concentration-inhibition curve. A higher IC50 goes with lower potency. For `Cc1cccc2c1/C(=C/c1ccc(N(C)C)c3ccccc13)C(=O)N2`, the IC50 is 0.4 µM in experiment [1]; 10 µM in experiment [2]; > 50 µM in experiment [3]; > 50 µM in experiment [4]; 10 µM in experiment [5].

On to `CCN(CC)CCNC(=O)c1c(C)[nH]c(/C=C2\C(=O)Nc3ccc(F)cc32)c1C` [SUNITINIB], for which the IC50 in experiment [2] was determined as 0.22 µM; in experiment [5] it was 1.2 µM.

For the molecule `O=C1Nc2ccccc2/C1=C\c1ccc(O)cc1`, the IC50 in experiment [1] was 1.8 µM; in experiment [2] it was 16 µM; in experiment [3], > 50 µM; in experiment [4], > 50 µM; in experiment [5] it was > 50 µM.

Turning to `CCOC(=O)c1c(C)[nH]c(/C=C2\C(=O)Nc3ccccc32)c1C`, the IC50 in experiment [1] was found to be 4.3 µM; in experiment [2], 0.025 µM; in experiment [3], 19 µM; in experiment [4], 5.4 µM; in experiment [5], 2.6 µM.

On to `CN(C)S(=O)(=O)c1ccc2c(c1)/C(=C/c1cc3c([nH]1)CCCC3)C(=O)N2`, for which the IC50 in experiment [1] is 8.7 µM; in experiment [2] it was 0.16 µM; in experiment [3] it was > 50 µM; in experiment [4], 18 µM; in experiment [5], 0.18 µM.
